Results taken from article PMC10963303 (Pharmacology Research & Perspectives, 2024).
Read-outs that look alike come from different tables or passages of the source.

Legend:
OAT3 = conditions: at 50 μM; cited from earlier work
[1] = human, in vivo, po, 100 mg
[2] = tested on: 80 known receptors, ion channels, and enzyme targets; assay: Screen of 80 known receptors, ion channels, and enzyme targets; conditions: concentrations up to 10 μM; internal data
MATE1 = conditions: at 50 μM; cited from earlier work
[3] = tested on: human P‐gp, BCRP, BSEP, MATE1, MATE2‐K, OAT1, OAT3, OATP1B1, OATP1B3, OCT1, OCT2; conditions: tested transporter panel (ulotaront: except OCT2); cited from earlier work
OCT2 [4] = target: T1, OCT2 (Homo sapiens, UniProt O15244); set-up: […]; from tissue; host or cells: kidney of adult human subjects with schizophrenia (in vivo clinical study); conditions: cited from earlier work
T1 sequence (O15244 1-555): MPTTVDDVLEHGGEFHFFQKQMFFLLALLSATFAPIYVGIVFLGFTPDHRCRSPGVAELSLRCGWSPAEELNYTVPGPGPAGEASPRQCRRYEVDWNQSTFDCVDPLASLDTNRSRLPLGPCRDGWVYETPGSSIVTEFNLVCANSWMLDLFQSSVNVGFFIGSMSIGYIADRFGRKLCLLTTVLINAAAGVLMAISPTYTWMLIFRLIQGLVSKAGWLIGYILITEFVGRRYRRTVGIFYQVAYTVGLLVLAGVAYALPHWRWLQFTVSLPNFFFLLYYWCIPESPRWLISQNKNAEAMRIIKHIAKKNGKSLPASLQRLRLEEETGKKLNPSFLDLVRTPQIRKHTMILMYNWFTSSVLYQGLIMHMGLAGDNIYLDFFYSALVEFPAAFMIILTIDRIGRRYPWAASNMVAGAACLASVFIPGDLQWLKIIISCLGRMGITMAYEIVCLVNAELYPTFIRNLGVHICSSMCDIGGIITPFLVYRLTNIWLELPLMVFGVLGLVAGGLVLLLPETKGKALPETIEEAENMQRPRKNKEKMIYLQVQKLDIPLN

[5] = plasma; placebo + metformin‐HCl 850 mg single dose
OCT2 [6] = target: T1, OCT2; assay: clinical; conditions: plasma, oral
clinical = conditions: human, in vivo

## O=C(O)[C@@H]1OCCc2ccsc21 [SEP‐383103]
OAT3
  inhibition of OAT3: ~ 35%
[1]
  AUCinf, Geometric mean (CV%): 2510 (30.1) ng * h/mL
  AUCinf, Mean (SD): 2620 (797) ng * h/mL
  AUCinf, Median (min, max): 2490 (1550, 4810) ng * h/mL
  AUClast, Geometric mean (CV%): 2520 (29.7) ng * h/mL
  AUClast, Mean (SD): 2630 (780) ng * h/mL
  AUClast, Median (min, max): 2490 (1540, 4760) ng * h/mL
  C max, Geometric mean (CV%): 150 (22.6) ng/mL
  C max, Mean (SD): 154 (34.9) ng/mL
  C max, Median (min, max): 156 (99.7, 255) ng/mL
  t 1/2, Mean (SD): 9.17 (1.78) h
  t max, Median (min, max): 6.00 (3.00, 8.00) h
[2]
  binding or functional activity in screen of 80 targets: did not identify binding or functional activity
MATE1
  inhibition of MATE1: ~ 20%
[3]
  inhibitor of human efflux and uptake transporters: not an inhibitor

## C[C@@H]1CCO[C@H]2Cn3cc(C(=O)NCc4ccc(F)cc4F)c(=O)c(O)c3C(=O)N12 [dolutegravir]
OCT2 [4]; co‐administration of 50 mg dolutegravir bid
  increase of metformin AUC: 145%
OCT2 [4]; co‐administration of 50 mg dolutegravir qd
  increase of metformin AUC: 79%
OCT2 [4]; dolutegravir oral 50 mg qd or bid
  unbound C max/IC50 ratio (OCT2): 2–3.6

## CN(C)C(=N)N=C(N)N [metformin]
[5]
  t max, Median (min, max): 4.0 (2.0, 5.0) h
OCT2 [6]
  AUC(0-inf): 12500 ng·h/mL
clinical
  Cmax: 1130 ng/mL
  Tmax: 4.5 h
  Vd/F: 1280 L
clinical; po, 850 mg
  CL renal: 287 mL/min
